The values that follow come from patent publication US9808433B2, “Combination of a centrally-acting analgesic and a selective cyclooxygenase-2 inhibitor anti-inflammatory agent for the treatment of inflammation and pain in the veterinary field” (FORMEVET S.R.L., priority 2010, dated 2017).

As a reminder, the inhibition is the change of the read-out against control, counted positive when it falls.

For data set [1] the following is noted: cited from earlier work.
The test system of data set [2] is inflammatory oedema of the CFA-injected hind paw. The experiment in a line: Complete Freund adjuvant (CFA) induced paw inflammation (oedema) in the rat, plethysmometer. It is filed as in vivo, Sprague-Dawley rats. The note with it: for ml (inflamed paw/normal paw), intensity of oedema: day 3 after CFA, mean ± SD. The method, then:
An inflammation model extensively used and validated in the rat was used for the study.
Sprague-Dawley rats weighing 200-250 grams were used. The animals were housed in groups of 4 to a cage, at the temperature of 22° C.±2° C., with a light-dark cycle of 12/12-hour and unlimited access to food and water. The animals were used after a week's acclimatisation in the housing facility. Each test group consisted of 8 rats.
Inflammation was induced in one limb of the rat by administering a suspension of complete Freund adjuvant (CFA) containing 0.1 mg/0.1 ml of inactivated mycobacterium tuberculosis (H37Ra, ATCC 25177), in paraffin oil and mannide monooleate. The CFA was injected into the plantar surface of the left hind paw of the rat. This method induces reproducible inflammation characterised by oedema and pain.
All the medicaments were administered 3 days after the inflammation was induced with CFA. The Firocoxib was resuspended in a carrier consisting of 0.5% methocel, and administered orally in the volume of 1 ml at the doses of 2.5 and 5 mg/Kg.
The dose of 2.5 mg/Kg was combined with Tramadol at the dose of 4 mg/Kg. Tramadol dissolved in saline was administered by the intraperitoneal route (i.p., 0.2 ml/100 grams of weight) 30 minutes […] the Firocoxib. Inflammatory oedema was evaluated 1 hour after the Tramadol, corresponding to 90 minutes after the Firocoxib. […] The control animals were treated per os with the carrier, and i.p. with the same volume of saline.
The intensity of the oedema was measured on day 3 after intraplantar administration of CFA, 90 minutes after Firocoxib, corresponding to 1 hour after i.p. administration of Tramadol. We chose to evaluate the oedema 3 days after it was induced, because it is largest at this time. The paw swelling (oedema) was evaluated by measuring the volume of both hind paws using a specific instrument, the plethysmometer (7150 plethysmometer, Basile, Comerio, Italy). The results are expressed as the algebraic difference between the volume in ml of the inflamed paw (injected with CFA) and the normal uninflamed paw: the greater the difference, the larger the oedema present.
The values are the mean±SD of 8/10 rats.
The significance of the anti-inflammatory activity was evaluated with the Analysis of Variance (ANOVA) test, followed by the Bonferroni multiple comparison test. ANOVA test is the most suitable statistical test when more than 2 treatment groups are present. It is a restrictive test because it takes account of the variability of all the trial groups.

In another data set the target is T1, COX-1 (Canis lupus familiaris, UniProt Q8HZR1).
T1 sequence (Q8HZR1 28-603): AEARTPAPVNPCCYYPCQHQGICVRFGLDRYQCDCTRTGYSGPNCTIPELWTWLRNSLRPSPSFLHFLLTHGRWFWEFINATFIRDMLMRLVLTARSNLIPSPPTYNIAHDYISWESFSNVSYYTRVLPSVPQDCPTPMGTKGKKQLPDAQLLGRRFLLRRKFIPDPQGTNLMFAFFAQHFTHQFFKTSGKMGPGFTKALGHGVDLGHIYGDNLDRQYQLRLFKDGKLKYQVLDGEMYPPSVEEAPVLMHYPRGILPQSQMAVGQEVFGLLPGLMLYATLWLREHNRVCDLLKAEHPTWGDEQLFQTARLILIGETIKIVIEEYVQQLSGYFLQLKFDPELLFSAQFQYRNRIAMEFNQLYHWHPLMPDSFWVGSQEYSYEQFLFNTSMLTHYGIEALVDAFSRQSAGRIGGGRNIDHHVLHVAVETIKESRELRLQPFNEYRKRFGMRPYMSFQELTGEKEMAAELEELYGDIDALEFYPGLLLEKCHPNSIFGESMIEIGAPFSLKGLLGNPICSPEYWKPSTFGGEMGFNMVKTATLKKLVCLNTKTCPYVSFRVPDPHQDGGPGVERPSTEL
The following applies: dog, low therapeutic doses; cited from earlier work.

Consider `COc1cccc(C2(O)CCCCC2CN(C)C)c1` (centres unmarked) [Tramadol], for which, in data set [1] (in vivo), the “bond with plasma proteins” value is recorded as “low”, the elimination half-life was 1.5 to 7 h and the “time to peak plasma concentration” value was at most 2 h. For the same compound, the “absorption after oral administration” value in data set [1] (oral, regardless of the formulation used) is reported as “very good absorption”. The “anti-inflammatory effect (in words)” value in data set [2] (Tramadol 4 mg/kg alone) is listed as “no anti-inflammatory effect”. Moreover, the “ml (inflamed paw/normal paw), intensity of oedema” value in data set [2] (Tramadol 4 mg/kg i.p. alone, 60 min after Tramadol) was 0.80 ± 0.06 mL.
In the case of `CC1(C)OC(=O)C(OCC2CC2)=C1c1ccc(S(C)(=O)=O)cc1` [Firocoxib], the “anti-inflammatory effect (in words)” value in data set [2] (Firocoxib 2.5 mg/kg alone) was “completely lost its anti-inflammatory effect”. In addition, the “ml (inflamed paw/normal paw), intensity of oedema” value in data set [2] (Firocoxib 2.5 mg/kg p.o. alone, 90 min after Firocoxib) came to 0.83 ± 0.05 mL; in data set [2] (Firocoxib 5 mg/Kg p.o. alone, 90 min after Firocoxib, p < 0.01 vs saline), 0.42 ± 0.08 mL. Also, the inhibition at 5 mg/kg in data set [2] (Rattus norvegicus, Firocoxib 5.0 mg/kg alone) is about 50%. For the same compound, the “inhibition of COX-1 (in words)” value at COX-1 is “do not significantly inhibit COX-1”.
